The test system of assay [1] is angiotensin I converting enzyme in excised guinea pig ileum. Briefly: Inhibition of angiotensin I converting enzyme in excised guinea pig ileum (contractile activity of angiotensin I). Conditions: Krebs solution at 37°; angiotensin I 25 ng/ml. Here is the method:
The procedure for evaluating the inhibition of angiotensin I converting enzyme in excised guinea pig ileum is carried out as follows: varying concentrations of the compound are added to an excised guinea pig ileum bath in Krebs solution at 37°, aerated with a mixture of 95% O2 -5% CO2. After two minutes, angiotensin I (25 ng/ml) is added and the isotonic […] are measured. The concentration of representative compounds of the present invention (in micrograms/ml) which inhibit the contractile activity of angiotensin I by 50% (IC50) are shown in the following table: […]

Assay [2] has as its target T1, angiotensin converting enzyme (Oryctolagus cuniculus, UniProt P12822).
T1 sequence (P12822 34-1310): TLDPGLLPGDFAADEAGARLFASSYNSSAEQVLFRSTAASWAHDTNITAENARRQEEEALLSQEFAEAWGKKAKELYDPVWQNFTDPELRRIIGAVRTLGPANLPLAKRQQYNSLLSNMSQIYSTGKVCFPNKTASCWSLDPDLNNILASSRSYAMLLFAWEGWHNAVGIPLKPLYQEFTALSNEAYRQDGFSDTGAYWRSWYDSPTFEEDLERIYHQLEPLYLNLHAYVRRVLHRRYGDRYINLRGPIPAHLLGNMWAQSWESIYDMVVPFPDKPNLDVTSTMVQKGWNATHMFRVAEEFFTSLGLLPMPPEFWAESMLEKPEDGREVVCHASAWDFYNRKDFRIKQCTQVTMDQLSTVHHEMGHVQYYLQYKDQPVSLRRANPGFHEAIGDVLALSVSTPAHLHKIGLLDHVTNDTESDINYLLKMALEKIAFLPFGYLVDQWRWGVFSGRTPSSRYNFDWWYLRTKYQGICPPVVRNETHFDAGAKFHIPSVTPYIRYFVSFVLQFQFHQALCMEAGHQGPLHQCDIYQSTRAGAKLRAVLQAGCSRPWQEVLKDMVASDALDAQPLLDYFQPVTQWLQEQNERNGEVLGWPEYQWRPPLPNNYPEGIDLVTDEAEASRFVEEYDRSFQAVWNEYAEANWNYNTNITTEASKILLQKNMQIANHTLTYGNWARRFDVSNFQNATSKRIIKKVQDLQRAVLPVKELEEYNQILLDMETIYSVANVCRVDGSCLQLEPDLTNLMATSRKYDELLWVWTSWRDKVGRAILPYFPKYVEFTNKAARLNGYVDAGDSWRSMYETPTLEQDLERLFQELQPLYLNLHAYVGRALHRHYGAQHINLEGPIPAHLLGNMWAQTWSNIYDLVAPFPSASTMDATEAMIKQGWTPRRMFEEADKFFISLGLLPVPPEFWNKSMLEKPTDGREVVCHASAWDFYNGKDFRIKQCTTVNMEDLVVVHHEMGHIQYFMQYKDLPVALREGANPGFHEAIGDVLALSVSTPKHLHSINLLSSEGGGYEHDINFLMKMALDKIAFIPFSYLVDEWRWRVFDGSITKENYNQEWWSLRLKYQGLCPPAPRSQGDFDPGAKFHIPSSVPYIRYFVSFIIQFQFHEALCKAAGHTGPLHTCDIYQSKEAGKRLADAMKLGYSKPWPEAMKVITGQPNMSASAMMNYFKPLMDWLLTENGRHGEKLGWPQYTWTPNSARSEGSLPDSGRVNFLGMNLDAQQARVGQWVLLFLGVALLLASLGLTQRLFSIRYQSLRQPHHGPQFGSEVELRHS
In words: Inhibition of isolated angiotensin-converting enzyme of rabbit lung (cleavage of hippuryl-L-histidyl-L-leucine). The conditions noted are these: 5 mM hippuryl-L-histidyl-L-leucine; pH 8.3; 30 minutes at 37° C.; read-out: I50 (50% inhibition of angiotensin-converting enzyme) (converted). Details: isolated angiotensin converting enzyme from rabbit lungs; from tissue; host or cells: rabbit lung. Format: biochemical. The text has this:
Although conversion of angiotensin I to angiotensin II by angiotensin-converting enzyme is probably the reaction of most importance in the pathology of hypertension, the activity of the isolated enzyme is more conveniently and accurately assayed by measuring its rate of cleavage of a simpler peptide substrate, hippuryl-L-histidyl-L-leucine. For determination of I50 values (concentrations of compounds expressed in micrograms/ml producing a 50% inhibition of angiotensin-converting enzyme) various concentrations of each compound are added to 13×100 mm tubes along with the following components at the indicated final concentrations in a final volume of 0.25 ml: 100 mM potassium phosphate buffer, pH 8.3; 300 mM sodium chloride; 5 mM hippuryl-L-histidyl-L-leucine; and 5 milliunits of angiotensin-converting enzyme of rabbit lung. Controls containing no inhibitor (100% activity), and those acidified before addition of the enzyme (0% activity) are similarly prepared. All of the enzymatic reactions are initiated by addition of the enzyme component; tubes are incubated for 30 minutes at 37° C.; and reactions are terminated by addition of 0.25 ml. of 1 N HCl. The hippuric acid formed by action of angiotensin-converting enzyme on hippuryl-L-histidyl-L-leucine is extracted into ethyl acetate, evaporated to dryness, redissolved in water and quantitated from its absorbance at 228 nm. The percent inhibition by each concentration of compound is calculated by comparison with the 0% and 100% activity controls. The concentrations of representative compounds of the present invention which inhibit activity of angiotensin-converting enzyme by 50% are shown in the following table: […]

The test system of assay [3] is angiotensin I pressor response. In words: Inhibition of angiotensin I pressor response in unanesthetized rats, oral. In kind it is in vivo, rat (male, Sprague-Dawley). Conditions: angiotensin I 0.31 μg/kg, 2 animals. Here is the method: Representative compounds of the present invention are administered orally to unanesthetized male rats of the Sprague-Dawley strain, weighing about 200 g., followed by an injection of 0.31 μg/kg of angiotensin I. The following table indicates the degree of inhibition obtained.

The next assay relates to normotensive rat. In words: Blood pressure in normotensive rat, oral. In kind it is in vivo. The conditions noted are these: same dose (300 mg) orally.
For assay [4] the following is noted: in vivo; cited from earlier work.
In assay [5] the test system is 2-kidney Goldblatt renal hypertensive rat. In words: Mean blood pressure in 2-kidney Goldblatt renal hypertensive rat, oral. Format: in vivo, rat (male, CF Nelson). Conditions: second dosage day, 300 mg oral. An excerpt: Male rats of the CF Nelson strain are anesthetized with ether and each left renal artery is partially constricted with a silver clip (i.d. 0.22 mm). The right kidney and renal artery are left intact.

Assay [6] has as its system angiotensinogen and renin blood levels. Conditions: normotensive rats; cited from earlier work.
For assay [7], the system named is anesthetized normotensive rats. Conditions: intravenous; cited from earlier work.

Consider `C[C@H](NC(=O)CCS)C(=O)O` [Example 2, N-(3-mercaptopropanoyl)-L-alanine], for which, in assay [1], the “IC50 (inhibit the contractile activity of angiotensin I by 50%)” value is 0.94 µg/mL. For the same compound, the IC50 in assay [2] was 6.77 µM.

Take `CC(C)C[C@H](NC(=O)CCS)C(=O)O` [Example 4, N-(3-Mercaptopropanoyl)-L-leucine]: the “IC50 (inhibit the contractile activity of angiotensin I by 50%)” value in assay [1] was 2.0 µg/mL. Further, the IC50 in assay [2] is 8.21 µM.

Take `O=C(CCS)N[C@@H](Cc1ccccc1)C(=O)O` [Example 6, N-(3-Mercaptopropanoyl)-L-phenylalanine]: in assay [1], the “IC50 (inhibit the contractile activity of angiotensin I by 50%)” value amounted to 0.52 µg/mL. Besides, the IC50 in assay [2] is 3.39 µM.

On to `N=C(N)NCCC[C@H](NC(=O)CCS)C(=O)O` [Example 8, N^α -(3-Mercaptopropanoyl)-L-arginine], for which the “IC50 (inhibit the contractile activity of angiotensin I by 50%)” value in assay [1] was 0.9 µg/mL. Moreover, the IC50 in assay [2] is 0.648 µM.

Take `CN(CC(=O)O)C(=O)CCS` [Example 10, N-(3-Mercaptopropanoyl)sarcosine]: the “IC50 (inhibit the contractile activity of angiotensin I by 50%)” value in assay [1] came out at 0.94 µg/mL. Besides, the IC50 in assay [2] was 10.2 µM.

For the compound `O=C(O)CNC(=O)CCS` [Example 15, N-(3-Mercaptopropanoyl)glycine], the “IC50 (inhibit the contractile activity of angiotensin I by 50%)” value in assay [1] turned out to be 4.5 µg/mL. In addition, the IC50 in assay [2] was 12.3 µM. The “% maximum inhibition of angiotensin I pressor response ± SE” value in assay [3] (10 mg/kg oral) worked out at 34.2 ± 6.7%; in assay [3] (100 mg/kg oral) it was 61.5 ± 1.2%.

Turning to `N=C(N)NCCC[C@H](NC(=O)C(CS)Cc1ccccc1)C(=O)O` (stereo partly drawn) [Example 34, N^α -(3-mercapto-2-benzylpropanoyl)-L-arginine], the “IC50 (inhibit the contractile activity of angiotensin I by 50%)” value in assay [1] amounted to 4.1 µg/mL.

Consider `CC(S)C(=O)NCC(=O)O` (stereo not shown) [Example 51, N-2-Mercaptopropanoylglycine], for which the “IC50 (inhibit the contractile activity of angiotensin I by 50%)” value in assay [1] turned out to be 2.0 µg/mL. In addition, the IC50 in assay [2] is 15.9 µM. Besides, the “effects on blood pressure” value in the assay on normotensive rat is “no significant effects on blood pressure”. The figures for the “% maximum inhibition of angiotensin I pressor response ± SE” value in assay [3] (10 mg/kg oral), in assay [3] (30 mg/kg oral) and in assay [3] (100 mg/kg oral) were 29.9 ± 3.1%, 52.9 ± 15.8% and 64.9 ± 12.3%, respectively. In assay [4], the “effects of blood pressure” value is “no noticeable effects of blood pressure”. For the same compound, the Mean blood pressure is 206 mm Hg in assay [5] (Rat #9, 1 h after drug, before drug 222); 173 mm Hg in assay [5] (Rat #9, 2 h after drug, before drug 222); 157 mm Hg in assay [5] (Rat #9, 3 h after drug, before drug 222); 184 mm Hg in assay [5] (Rat #9, 4 h after drug, before drug 222); 206 mm Hg in assay [5] (Rat #9, 5 h after drug, before drug 222); 199 mm Hg in assay [5] (Rat #9, 6 h after drug, before drug 222). In addition, the Mean blood pressure in assay [5] (Rat #10, 1 h after drug, before drug 206) came to 203 mm Hg; in assay [5] (Rat #10, 2 h after drug, before drug 206) it was 190 mm Hg; in assay [5] (Rat #10, 3 h after drug, before drug 206), 189 mm Hg; in assay [5] (Rat #10, 4 h after drug, before drug 206) it was 199 mm Hg; in assay [5] (Rat #10, 5 h after drug, before drug 206), 195 mm Hg; in assay [5] (Rat #10, 6 h after drug, before drug 206), 197 mm Hg. The angiotensinogen result in assay [6] is on record as “increases angiotensinogen”. Moreover, the renin blood levels entry in assay [6] was “lowers renin blood levels”. In assay [7], the “lowering of the blood pressure” value was “produced lowering of the blood pressure”.

Values taken from US4199512A, “Compounds for alleviating hypertension” (E. R. Squibb & Sons, Inc., priority 1978, dated 1980).
